According to US20180280447A1, “PLACENTA-DERIVED CELLS EXCRETING C3 OR C1R COMPLEMENT AND COMPOSITION CONTAINING SAME” (SUNGKWANG MEDICAL FOUNDATION, priority 2014, published 2018):

What was measured:
Format in all cases: cell-based, human
[1] = system: hPDCs; experiment: Notch/DLL1 signaling in nerve/neuron induction of hPDCs
Experimental: (§1) Quantitative RT-PCR: Total RNA was isolated from cells using TRizol (Invitrogen). cDNA was synthesized from 1 μg of total RNA using Superscript II reverse transcriptase, Oligo-d(T) 12-18 primer, DTT, and dNTPs according to the manufacturer's protocol. RT-PCR was performed by using a Pre-Mix kit (Bioneer). A PCR product was electrophoresed on a 2% agarose gel using RedGel (Biotium, Inc), and visualized by a UV-transilluminator.
To suppress FGF4 downstream signaling, hPDCs were cultured for 1 hour in a 10% FBS-supplemented alpha-MEM medium pretreated with or without 5 μM of ERK-inhibiting U0126 or 10 μM of JNK-inhibiting SP600125 (Calbiochem) in dimethyl sulfoxide (DMSO), and then stimulated with 25 ng/mL FGF4 for 3 days. To analyze suppression of Notch signaling, […] were in cultured for 1 hour in a 10% FBS-supplemented alpha-MEM medium pretreated with or without 50 μM of Notch-inhibiting DAPT (N—[N-(3,5-difluorophenacetyl)-1-alanyl]-S-phenylglycine t-butyl ester, Sigma), and then stimulated with 25 ng/mL FGF4 for 3 days.

[2] = system: hPDCs; experiment: Suppression of FGF4 downstream signaling (ERK, JNK) in hPDCs
Experimental: […] To analyze suppression of Notch signaling, ASCs were in cultured for 1 hour in a 10% FBS-supplemented alpha-MEM medium pretreated with or without 50 μM of Notch-inhibiting DAPT (N—[N-(3,5-difluorophenacetyl)-1-alanyl]-S-phenylglycine t-butyl ester, Sigma), and then stimulated with 25 ng/mL FGF4 for 3 days.
Cells were first fixed in 4% PFA at room temperature for 15 minutes, and then permeabilized with 0.1% Triton X-100 for 20 minutes, followed by blocking with 10% normal goat serum (NGS). The following primary antibodies were used: anti-neuron classIII β-tubulin (Tuji), -Nestin (Covance), -Ki-67 (Novocastra), -SOX2, -NANOG, KLF4, Brachyury/Bry (all from Abcam), OCT3/4, GATA4 (all from Santa Cruz). Cells were incubated with Alexa Fluor 488 or 594-conjugated antibody (Molecular Probes) at room temperature for 1 hour, and to examine nuclei, cells were stained with 4′, 6-diamino-2-phenylindole (DAPI, 2 mg/mL in PBS). A cover-slip was sealed to a glass slide. Cells were visualized by a fluorescence microscope or a confocal fluorescence microscope (LSM 510 confocal microscope, Zeiss).

[3] = system: TGF-β1 mRNA; experiment: TGF-β1 gene silencing by siRNA in PDCs
Source text: Using the human nucleotide sequences for TGF-β1 mRNA obtained from GenBank (GI:260655621) and referring to the design strategy of siRNA, two pairs of 21-bp reverse repeat sequences targeting TGF-β1 mRNA were synthesized by Bioneer (Seoul, Korea). siRNA targeted forward: 5′. CAGAGUACACACAGCAUAU-3′(1243-1261) (SEQ ID NO: 31); reverse, 5′-AUAUGCUGUGUGUACUCUG-3′(1261-1243) (SEQ ID NO: 32) of the TGF-β coding sequence. siRNA (at a final concentration of 100 pmol) was transfected with Upofectamine 2000 (Invitrogen, Gaithersburg, Md.) according to the manufacturer's instructions. The efficacy of TGF-β1 gene silencing was assessed by quantitative real-time PCR and Western blotting.

[4] = system: hPDCs; experiment: Neural induction of hPDCs by FGF4; conditions: 3 days
Experimental: as §1
Immunoblotting analysis: Cells were washed with cold PBS, and lysed with a lysis buffer containing a protease inhibitor cocktail (Pierce). A total cell lysate was normalized with a Bradford reagent (Bio-Rad), and 30˜50 μg of the cell lysate was applied to 8˜12% SDS-PAGE and transferred onto a PVDF membrane (Milipore). The membrane was blocked with TBS-T (50 mM Tris-HCl, pH 7.6, 150 mM NaCl, 0.05% Tween-20) containing 5% skim milk (Becton Dickinson), and examined with respective antibodies. An immune reaction was performed by using an ECL Western Blotting system (Millipore, Amersham). […]
Cells were first fixed in 4% PFA at room temperature for 15 minutes, and then permeabilized with 0.1% Triton X-100 for 20 minutes, followed by blocking with 10% normal goat serum (NGS). […] Cells were visualized by a fluorescence microscope or a confocal fluorescence microscope (LSM 510 confocal microscope, Zeiss).

For `C[C@H](NC(=O)Cc1cc(F)cc(F)c1)C(=O)N[C@H](C(=O)OC(C)(C)C)c1ccccc1` [DAPT, N—[N-(3,5-difluorophenacetyl)-1-alanyl]-S-phenylglycine t-butyl ester], which “DLL1, Nestin, and TUJ1 gene expression” value ([1]; compared with DMSO-treated cells, HD culture with FGF4) is on record?
The value was “significantly low levels”.

Which “% Ki-67 cells in total DAPI+ cells” value ([2]; SP600125) does the source give for `Oc1c2ccccc2c2c3c(cccc13)N=N2` [SP600125] here?
Its value is 37.53±1.89%.

And the “Nestin+ total cells” value ([2]; SP600125, FGF4, 72 hours)?
The value was 48.47±3.07.

How did the “% Ki-67+ cells in total DAPI+ cells” value ([2]; 5 mM U0216) turn out when `N#CC(=C(/N)Sc1ccccc1N)/C(C#N)=C(\N)Sc1ccccc1N` [U0126] was run?
The value was 64.46±2.14%.

And the “Nestin+ total cells” value ([2]; 5 mM U0216, FGF4, 72 hours)?
The value was 47.61±3.46.

What about the Nestin protein levels ([2]; FGF4-treated hPDCs, immunoblotting) of the same molecule?
The Nestin protein levels was “decrease in Nestin protein levels”.

For “TGF-β siRNA: siRNA targeting TGF-β1 mRNA, SEQ ID NO: 31 and 32, synthesized by Bioneer (chain 1 CAGAGUACACACAGCAUAU; chain 2 AUAUGCUGUGUGUACUCUG; listed as RNA, chemistry not given here)”, which “PEDF and Ang-1 expressions” value ([3]; after TGF-β siRNA transfection) is on record?
The value was “no changes”.

And the “decrease of TGF-β expression” value ([3]; quantitative real-time PCR, compared with control PDCs)?
The value was 80-90%.

B1: FGF4: growth factor (R&D Systems) tested for neural induction of hPDCs (protein, UniProt P08620 31-206, looked up)
Fibroblast growth factor 4: APTAPNGTLEAELERRWESLVALSLARLPVAAQPKEAAVQSGAGDYLLGIKRLRRLYCNVGIGFHLQALPDGRIGGAHADTRDSLLELSPVERGVVSIFGVASRFFVAMSSKGKLYGSPFFTDECTFKEILLPNNYNAYESYKYPGMFIALSKNGKTKKGNRVSPTMKVTHFLPRL
For B1, which “expression levels of Nestin and Musashi1” value ([4]; 25 ng/mL FGF4 vs 10 ng/mL EGF or 10 ng/mL bFGF) is on record?
The value was “much higher”.

And the “mRNA expression level of Nestin” value ([4]; 25 ng/mL among 10, 25, 50 ng/mL)?
Its value is “highest mRNA expression level of Nestin”.

B2: DLL1-FLAG: recombinant DLL1 protein (protein, UniProt O00548 18-545, looked up)
extracellular domain: QVWSSGVFELKLQEFVNKKGLLGNRNCCRGGAGPPPCACRTFFRVCLKHYQASVSPEPPCTYGSAVTPVLGVDSFSLPDGGGADSAFSNPIRFPFGFTWPGTFSLIIEALHTDSPDDLATENPERLISRLATQRHLTVGEEWSQDLHSSGRTDLKYSYRFVCDEHYYGEGCSVFCRPRDDAFGHFTCGERGEKVCNPGWKGPYCTEPICLPGCDEQHGFCDKPGECKCRVGWQGRYCDECIRYPGCLHGTCQQPWQCNCQEGWGGLFCNQDLNYCTHHKPCKNGATCTNTGQGSYTCSCRPGYTGATCELGIDECDPSPCKNGGSCTDLENSYSCTCPPGFYGKICELSAMTCADGPCFNGGRCSDSPDGGYSCRCPVGYSGFNCEKKIDYCSSSPCSNGAKCVDLGDAYLCRCQAGFSGRHCDDNVDDCASSPCANGGTCRDGVNDFSCTCPPGYTGRNCSAPVSRCEHAPCHNGATCHERGHRYVCECARGYGGPNCQFLLPELPPGPAVVDLTEKLEGQGGPFPW
modifications: extracellular domain FLAG tag
notes: recombinant DLL1 protein
Which “mRNA levels of DLL1, Nestin, and TUJ1” value ([1]; three days with FGF4 in hPDC cultures) does the source give for B2 here?
The value was “up-regulated”.
